Assay results as given in US12637468B2, “Substituted [1,2,4]triazolo[4,3-b]pyridazines as GABAA receptor modulators” (SHANGHAI SIMR BIOTECHNOLOGY CO., LTD., priority 2019, dated 2026).

These molecules were tested against T1, α5-GABAA receptor (Homo sapiens, UniProt P18507+P31644) (assay: Cell-level screening: whole cell patch clamp, inverse agonist efficacy on α5-GABAA receptor expressed in HEK293). Settings: drug 100 nM, GABA 0.05 μM, HEK293 expressing α5, β3 and γ2 subunits, clamped at −60 mV; read-out: Compound inverse agonist efficacy %.
T1 construct: expressed in transfected cells; host or cells: HEK293, monoclonal stably transfected line
T1 sequence (P31644 32-462): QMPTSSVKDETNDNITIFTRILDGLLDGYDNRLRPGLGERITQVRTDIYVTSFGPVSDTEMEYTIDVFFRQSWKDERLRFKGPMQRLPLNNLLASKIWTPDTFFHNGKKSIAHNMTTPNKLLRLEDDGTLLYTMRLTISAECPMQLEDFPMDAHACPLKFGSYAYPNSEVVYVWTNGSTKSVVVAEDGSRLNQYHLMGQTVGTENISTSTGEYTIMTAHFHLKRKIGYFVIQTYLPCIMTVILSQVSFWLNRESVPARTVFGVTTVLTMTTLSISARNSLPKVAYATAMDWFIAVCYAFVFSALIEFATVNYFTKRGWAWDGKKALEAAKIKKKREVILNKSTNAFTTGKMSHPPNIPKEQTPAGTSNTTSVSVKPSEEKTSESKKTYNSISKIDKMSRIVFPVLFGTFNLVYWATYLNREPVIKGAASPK
T1 sequence (P28472 26-473 partner): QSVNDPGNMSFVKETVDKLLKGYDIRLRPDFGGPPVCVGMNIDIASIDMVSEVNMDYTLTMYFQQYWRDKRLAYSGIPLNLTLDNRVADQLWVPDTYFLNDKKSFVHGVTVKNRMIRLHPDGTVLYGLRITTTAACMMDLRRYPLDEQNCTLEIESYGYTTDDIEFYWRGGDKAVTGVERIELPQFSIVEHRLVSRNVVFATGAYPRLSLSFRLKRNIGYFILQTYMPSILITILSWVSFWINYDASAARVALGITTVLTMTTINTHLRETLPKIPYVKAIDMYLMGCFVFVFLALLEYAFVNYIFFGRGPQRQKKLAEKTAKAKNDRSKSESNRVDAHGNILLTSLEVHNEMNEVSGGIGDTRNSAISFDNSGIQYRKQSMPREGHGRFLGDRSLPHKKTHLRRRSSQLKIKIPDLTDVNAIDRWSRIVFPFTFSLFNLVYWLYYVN
T1 sequence (P18507 40-467 isoform P18507-1 limits assumed): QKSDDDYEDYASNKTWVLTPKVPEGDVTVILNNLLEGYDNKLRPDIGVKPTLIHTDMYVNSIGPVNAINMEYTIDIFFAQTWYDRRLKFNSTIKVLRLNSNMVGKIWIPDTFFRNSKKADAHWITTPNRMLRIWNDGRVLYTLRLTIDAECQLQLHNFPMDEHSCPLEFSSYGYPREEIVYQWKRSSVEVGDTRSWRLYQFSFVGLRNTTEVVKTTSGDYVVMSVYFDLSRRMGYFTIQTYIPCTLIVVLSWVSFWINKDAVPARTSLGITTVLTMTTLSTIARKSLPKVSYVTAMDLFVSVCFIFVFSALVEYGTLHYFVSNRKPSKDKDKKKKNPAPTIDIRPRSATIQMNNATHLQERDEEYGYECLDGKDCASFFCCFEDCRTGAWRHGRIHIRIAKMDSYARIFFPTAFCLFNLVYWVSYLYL
Type: cell-based
Protocol: The inventors used electrophysiological methods to determine the inverse agonist efficacy of the drugs to be tested on the α5-GABAA receptor. The detailed methods are as follows:
Different subunits of GABAA receptors were expressed in human […] cell line 293 (HEK293) cell line. The cells were cultured in a culture medium and used as a cell model for screening pain inhibiting drugs. The α, β and γ subunits are necessary to form complete functional GABAA receptors. In this embodiment, the inventors had established the following cell model: α5 subunit (see GenBank Accession No. NM_000810.3 for protein sequences), β3 subunit (see GenBank Accession No. NM_000814.5 for protein sequences) and γ2 subunit (see GenBank Accession No. NM_000816.3 for protein sequences) were expressed in HEK293 cell line at the same time, followed by screening the monoclonal cell line. This cell line contained α5-GABAA receptor and had complete GABAA receptor function.
The monoclonal stably transfected HEK-293 cells expressing α5-GABAA receptor were cultured in 10 cm culture dishes and passaged when the cells grew to 80%-90%. During passaging, the culture medium was aspirated first, then 3 mL of DPBS phosphate buffer salt (Gibco™) was added to the culture dishes, and the culture dishes were shaken slightly, and DPBS was aspirated. 1 mL of trypsin (TrypLE Express, Gibco™) was added thereto, and the cells were digested at 37° C. for 1-2 minutes. Then 3 mL of complete medium (DMEM+10% FBS (Gibco™)) was added and the cells at the bottom of the culture dishes were dispersed. The cell suspension were transferred to a 15 mL centrifugal tube (Corning) and then centrifuged at 200 g for 3 minutes. The supernatant was discarded, 4 mL of complete medium was added, and the cells were gently blown and resuspended for use. If cell passaging was performed, the cell suspension was diluted at a ratio of 1:5 or 1:10. If cells for electrophysiology use were prepared, the cell suspension was diluted in a ratio of 1:12, then added into a 24-well dish (Corning™) in which glass slides were placed and pretreated with Poly-D-Lysine, and the cells were tested after being attached to the walls. The culture time of cells for electrophysiology use was no more than 48 hours.
Drug concentration setting: the final drug concentration used in drug screening was 100 nM, and the GABA concentration range was 0.05 μM. The final drug concentrations used in the dose-inversal agonistic efficiency (%) test were 0.3 nM, 3 nM, 10 nM, 30 nM, 100 nM and 300 nM. The whole cell patch clamp technique was used in electrophysiological experiments, which could refer to the literature (I. Lecker, Y. Yin, D. S. Wang and B. A. Orser, (2013) Potentiation of GABAA receptor activity by volatile anaesthetics is reduced by α5-GABAA receptor-preferring inverse agonists, British Journal of Anaesthesia 110 (S1): i73-i81). The components of extracellular solution (ECS) for electrophysiology use were as follows: 150 mM NaCl, 5 mM KCl, 2.5 mM CaCl2), 1 mM MgCl2, 10 mM HEPES and 10 mM glucose (pH 7.4); electrode internal solutions for electrophysiology use were as follows: 140 mM CsCl, 11 mM EGTA, 10 mM HEPES, 2 mM CaCl2), 1 mM MgCl2, 4 mM MgATP, 2 mM TEA (pH 7.3). The signal acquisition used an EPC-10 amplifier and the PatchMaster software (HEKA). The recording electrode was drawn using borosilicate glass, and the electrode resistance was 4 to 6 MΩ. The ALA-VC3-8PP™ system was used for extracellular administration. Separate cells that grew independently was selected for recording. During recording, the cell membrane potential was clamped at −60 mV. During experiment, an extracellular solution was applied to the cells for about 20 seconds. When the baseline reached to a stable state, the extracellular solution was switched to GABA. Then the current induced by GABA could be detected. […]
`COc1nccc(COc2nn3c(-c4cc(C)on4)nnc3cc2OC)n1` [Embodiment 72] was tested, and the inhibition at 0.1 µM was 54.3%.
`COc1cc2nnc(-c3cc(C)on3)n2nc1OCc1ccc2c(cnn2C)n1` [Embodiment 73] was tested, and the inhibition at 0.1 µM was 34.5%.
Work on `COc1cc2nnc(-c3cc(C)on3)n2nc1OCc1cccn(C)c1=O` [Embodiment 74] yielded an inhibition at 0.1 µM of 40.4%.
`CCn1cccc(COc2nn3c(-c4cc(C)on4)nnc3cc2OC)c1=O` [Embodiment 76] was tested, and the inhibition at 0.1 µM was 41.6%.
Molecule `COc1cc2nnc(-c3cc(C)on3)n2nc1OCc1ccc2c(n1)CCN(CC(F)(F)F)C2` [Embodiment 77] has an inhibition at 0.1 µM of 44.8%.
`CCN1CCc2nc(COc3nn4c(-c5cc(C)on5)nnc4cc3OC)ccc2C1` [Embodiment 79] was tested, and the inhibition at 0.1 µM was 47.6%.
Molecule `COc1cc2nnc(-c3cc(C)on3)n2nc1OCc1ccc2c(n1)CCN(C(=O)C1CC1)C2` [Embodiment 81] has an inhibition at 0.1 µM of 45.9%.
Molecule `COc1cc2nnc(-c3cc(C)on3)n2nc1OCc1ccc2c(n1)CCN(CC1CC1)C2` [Embodiment 82] has an inhibition at 0.1 µM of 47.9%.
`COc1cc2nnc(-c3cc(C)on3)n2nc1OCc1ccc2c(n1)CCN(C(C)C)C2` [Embodiment 83] was tested, and the inhibition at 0.1 µM was 39.9%.
For `COCCCOc1cnc(COc2nn3c(-c4cc(C)on4)nnc3cc2OC)cn1` [Embodiment 86], the inhibition at 0.1 µM was 41.8%.
`COc1cc2nnc(-c3cc(C)on3)n2nc1OCc1ccc2c(n1)CCN(c1ccccc1)C2` [Embodiment 87, 3-(7-Methoxy-6-((6-phenyl-5,6,7,8-tetrahydro-1,6-naphthalen-2-yl)methoxy)-[1,2,4]triazolo[4,3-b]pyridazin-3-yl)-5-methylisoxazole] was tested, and the inhibition at 0.1 µM was 39.7%.
For `COc1cc2nnc(-c3cc(C)on3)n2nc1OCc1ccc2c(n1)CNC2=O` [Embodiment 89], the inhibition at 0.1 µM was 47.2%.
Molecule `COc1cc2nnc(-c3cc(C)on3)n2nc1OCc1ccc2c(n1)CCN(CCC#N)C2=O` [Embodiment 91] has an inhibition at 0.1 µM of 47.8%.
Molecule `COCCn1ccc2ccc(COc3nn4c(-c5cc(C)on5)nnc4cc3OC)nc21` [Embodiment 92] has an inhibition at 0.1 µM of 52.8%.
`COCCCn1ccc2ccc(COc3nn4c(-c5cc(C)on5)nnc4cc3OC)nc21` [Embodiment 93] gave an inhibition at 0.1 µM of 36.5%.
Molecule `COc1cc2nnc(-c3cc(C)on3)n2nc1OCc1ccc2ccn(C)c2n1` [Embodiment 94] has an inhibition at 0.1 µM of 32.9%.
`COc1cc2nnc(-c3cc(C)on3)n2nc1OCc1ccc(C2(F)CCCNC2)cn1` (stereo not drawn) [Embodiment 95] gave an inhibition at 0.1 µM of 48.1%.
`COc1cc2nnc(-c3cc(C)on3)n2nc1OCc1ccc(C2CCNC2)cn1` (stereo not drawn) [Embodiment 96] was tested, and the inhibition at 0.1 µM was 38.8%.
Molecule `COc1cc2nnc(-c3cc(C)on3)n2nc1OCc1ccc2c(ccn2C)n1` [Embodiment 97] has an inhibition at 0.1 µM of 32.6%.
`COc1cc2nnc(-c3cc(C)on3)n2nc1OCc1ccc2c(n1)CNC2` [Embodiment 98] gave an inhibition at 0.1 µM of 38%.
`COc1cc2nnc(-c3cc(C)on3)n2nc1OCc1ccc2ncn(C)c2n1` [Embodiment 101] showed an inhibition at 0.1 µM of 32.9%.
In the case of `COc1cc2nnc(-c3cc(C)on3)n2nc1OCc1cccc2cnnn12` [Embodiment 104], the inhibition at 0.1 µM is reported as 48.2%.
`COc1cc2nnc(-c3cc(C)on3)n2nc1OCc1ccc2nccn2n1` [Embodiment 105] showed an inhibition at 0.1 µM of 49.3%.
In the case of `COc1cc2nnc(-c3cc(C)on3)n2nc1OCc1ccc(OCC2CCCO2)cn1` (stereo not drawn) [Embodiment 106], the inhibition at 0.1 µM is reported as 60.4%.
For `C=CC(=O)N1CCc2nc(COc3nn4c(-c5cc(C)on5)nnc4cc3OC)ccc2C1` [Embodiment 108, 1-(2-(((7-Methoxy-3-(5-methylisoxazol-3-yl)-[1,2,4]triazolo[4,3-b]pyridazin-6-yl)oxy)methyl)-7,8-dihydro-1,6-naphthyridin-6(5H)-yl)prop-2-en-1-one], the inhibition at 0.1 µM was 54.9%.
With `CCOC(=O)N1CCc2nc(COc3nn4c(-c5cc(C)on5)nnc4cc3OC)ccc2C1` [Embodiment 111, Ethyl 2-(((7-methoxy-3-(5-methylisoxazol-3-yl)-[1,2,4]triazolo[4,3-b]pyridazin-6-yl)oxy)methyl)7,8-dihydro-1,6-naphthyridine-6(5H)-carboxylate] the inhibition at 0.1 µM was 59.6%.
In the case of `COc1cc2nnc(-c3cc(C)on3)n2nc1OCc1ccc(C2CCNCC2)cn1` [Embodiment 116], the inhibition at 0.1 µM is reported as 44.9%.
Molecule `COc1cc2nnc(-c3cc(C)on3)n2nc1OCc1cccc2ccnn12` [Embodiment 117] has an inhibition at 0.1 µM of 32.3%.
Work on `COc1cc2nnc(-c3cc(C)on3)n2nc1OCc1ccc2c(ncn2C)n1` [Embodiment 118] yielded an inhibition at 0.1 µM of 63.7%.
With `COc1cc2nnc(-c3cc(C)on3)n2nc1OCc1ccc2c(n1)NCCO2` [Embodiment 119] the inhibition at 0.1 µM was 35.9%.
`COc1cc2nnc(-c3cc(C)on3)n2nc1OCc1ccc2c(n1)CNCC2` [Embodiment 120] was tested, and the inhibition at 0.1 µM was 42.6%.
`COc1cc2nnc(-c3cc(C)on3)n2nc1OCc1cc2c(cn1)OCCO2` [Embodiment 121] was tested, and the inhibition at 0.1 µM was 37.4%.
In the case of `COc1cc2nnc(-c3cc(C)on3)n2nc1OCc1cccc(C2CCNC2)n1` (stereo not drawn) [Embodiment 123], the inhibition at 0.1 µM is reported as 36.7%.
`COc1cc2nnc(-c3cc(C)on3)n2nc1OCc1cccc(C2(F)CCNC2)n1` (stereo not drawn) [Embodiment 125] gave an inhibition at 0.1 µM of 41.8%.
`COc1cc2nnc(-c3cc(C)on3)n2nc1OCc1ccc2c(n1)CCN(C(=O)c1ccccc1)C2` [Embodiment 131] was tested, and the inhibition at 0.1 µM was 52.2%.
Work on `COCCOc1ccc(COc2nn3c(-c4noc(C)n4)nnc3cc2OC)nc1` [Embodiment 132] yielded an inhibition at 0.1 µM of 57.3%.
Work on `COc1cc2nnc(-c3cc(C)on3)n2nc1OCc1ccc(OCCN2CCC2)cn1` [Embodiment 133] yielded an inhibition at 0.1 µM of 36.9%.
In the case of `CCN1CC(Oc2ccc(COc3nn4c(-c5cc(C)on5)nnc4cc3OC)nc2)C1` [Embodiment 134], the inhibition at 0.1 µM is reported as 30.4%.
`COc1ccc2nc(COc3nn4c(-c5cc(C)on5)nnc4cc3OC)ccc2c1` [Embodiment 136] showed an inhibition at 0.1 µM of 37.3%.
`COc1cc2nnc(-c3cc(C)on3)n2nc1OCc1ccc(-c2nc(C)no2)cn1` [Embodiment 137, 5-(6-(((7-Methoxy-3-(5-methylisoxazol-3-yl)-[1,2,4]triazolo[4,3-b]pyridazin-6-yl)oxy)methyl)pyridin-3-yl)-3-methyl-1,2,4-oxadiazole] showed an inhibition at 0.1 µM of 47.2%.
Molecule `COc1cc2nnc(-c3cc(C)on3)n2nc1OCc1ccc2ccccc2n1` [Embodiment 138] has an inhibition at 0.1 µM of 42.9%.
For `COCCCn1ccc2nc(COc3nn4c(-c5cc(C)on5)nnc4cc3OC)ccc2c1=O` [Embodiment 139], the inhibition at 0.1 µM was 49%.
`COc1cc2nnc(-c3cc(C)on3)n2nc1OCc1ccc2cnccc2n1` [Embodiment 140] was tested, and the inhibition at 0.1 µM was 49.3%.
`COc1cc2nnc(-c3cc(C)on3)n2nc1OCc1ccc2c(n1)CCN(C)C2=O` [Embodiment 142] showed an inhibition at 0.1 µM of 50.2%.
`COc1cc2nnc(-c3cc(C)on3)n2nc1OCc1ccc2c(n1)CCN(C(=O)CC#N)C2` [Embodiment 143] showed an inhibition at 0.1 µM of 49.6%.
`COc1cc2nnc(-c3cc(C)on3)n2nc1OCc1ccc2c(=O)n(C3COC3)ccc2n1` [Embodiment 144] was tested, and the inhibition at 0.1 µM was 42%.
`CCOc1nccc2nc(COc3nn4c(-c5cc(C)on5)nnc4cc3OC)ccc12` [Embodiment 145] gave an inhibition at 0.1 µM of 51.3%.
`COCCOc1nccc2nc(COc3nn4c(-c5cc(C)on5)nnc4cc3OC)ccc12` [Embodiment 146] gave an inhibition at 0.1 µM of 33.4%.
Molecule `COCCn1ccc2nc(COc3nn4c(-c5cc(C)on5)nnc4cc3OC)ccc2c1=O` [Embodiment 147] has an inhibition at 0.1 µM of 39.8%.
For `CCn1ccc2nc(COc3nn4c(-c5cc(C)on5)nnc4cc3OC)ccc2c1=O` [Embodiment 148], the inhibition at 0.1 µM was 69.6%.
With `COc1cc2nnc(-c3cc(C)on3)n2nc1OCc1ccc2c(n1)N(C)CCO2` [Embodiment 149] the inhibition at 0.1 µM was 71.7%.
